Laboratory results reported in US20030148954A1, “Agents and methods for modulating activator protein-1-mediated cellular processes” (Wisconsin Alumni Research Foundation, priority 2001, published 2003).

Key:
c-Jun = assay: Western blot of c-Jun protein and c-Jun phosphorylation; type: cell-based, human
Experimental: (§1) Stable Transfection—K562 cells were stably transfected by electroporation with a Bio-Rad Gene pulser electroporator. Cells (5×10^6) were washed with ice-cold PBS, resuspended in 0.5 ml of ice-cold PBS, mixed with 5 μg linearized plasmid DNA, and subjected to electroporation (960 microfarad; 220 V) in a 0.4 cm-wide electroporation cuvette (BTX). pBabe and pNIC-1 were linearized with NotI. Cells were then added to 20 ml of complete IMEM, grown for 48 h, and diluted in complete IMEM containing 1.5 μg/ml puromycin (pools of K562-Babe and K562-NIC-1 cells). Stably transfected cells were analyzed for erythroid differentiation as soon as the pools were generated by benzidine staining to reduce the probability of phenotypic changes that may result from prolonged growth.
Cells were washed once with ice-cold PBS, cell pellets were resuspended in 30 μl ice-cold PBS and were immediately boiled in 70 μl SDS sample buffer for 10 min. Proteins (10 μl) were resolved by SDS-PAGE on a 10% acrylamide gel and transferred to Immobilon P membrane (Millipore). After blocking membranes in 5% nonfat dry milk in TBST (10 mM Tris pH 8.0, 150 mM NaCl, 0.3% Tween-20), membranes were incubated with primary antibody (diluted 1:1000 in dry milk/TBST). […] Antigen-antibody complexes were detected with ECL Plus™ (Amersham Life Science) according to manufacturer's instructions.

IκBα = assay: Northern blotting of IκBα transcripts in K562-Babe and K562-NIC-1 cells; type: cell-based, human; conditions: 5 nM TPA 12 h, stably transfected NIC-1
Experimental: as §1
(§2) Northern Blotting—Total RNA from K562-Babe and K562-NIC-1 cells was extracted with Triazol (Life Technologies, Inc.). Ten μg of RNA per sample was electrophoresed on a 1% agarose, 6.6% formaldehyde gel and then transferred overnight to a Magnacharge nylon membrane (Osmonics). RNA was cross-linked to the membrane by UV irradiation. Membranes were prehybridized for 30 min at 60° C. in ExpressHyb hybridization solution (Clontech). […] Radioactivity was quantitated by PhosphorImager analysis with ImageQuant software (Molecular Dynamics).

human Aγ globin promoter = assay: pGL3γLuc reporter, transient transfection of K562 cells; type: cell-based
Experimental: Transient Transfections—K562 cells (5×10^5) were collected by centrifugation at 240×g for 8 min at 4° C. and resuspended in 4 ml of complete IMEM. Plasmid DNAs (1 μg of reporter and 2 μg of effector) were added to 150 μl of IMEM, incubated with Superfect (4 μl/1 μg DNA; Qiagen) for 10 min at room temperature and then added to cells.
For each transfection, cells were incubated for 26 h after transfection and then treated with TPA (final concentration: 5 nM) or the vehicle (DMSO). After incubating for another 12 or 16 h, cells were harvested and assayed for luciferase activity. Luciferase activity was normalized by the protein content of the lysates, determined by Bradford assay using γ-globulin as a standard.

c-Fos = assay: Western blot of Fos protein; type: cell-based, human; conditions: K562-NIC-1 versus K562-Babe
Experimental: as §1
(§3) To measure the phosphorylation state of components of the MAPK pathway, K562-Babe and K562-NIC-1 cells (1×10^6) were collected after treatment with 5 nM TPA or DMSO for 30 min. Cells were washed once with ice-cold PBS, cell pellets were resuspended in 30 μl ice-cold PBS and were immediately boiled in 70 μl SDS sample buffer for 10 min. Proteins (10 μl) were resolved by SDS-PAGE on a 10% acrylamide gel and transferred to Immobilon P membrane (Millipore). […] Antigen-antibody complexes were detected with ECL Plus™ (Amersham Life Science) according to manufacturer's instructions.

MMP1 = assay: Northern blotting of MMP1 transcripts in K562-Babe and K562-NIC-1 cells; type: cell-based, human; conditions: 5 nM TPA 12 h, stably transfected NIC-1
Experimental: as §1, §2

ERK1/2 = assay: Western blot with phospho-specific antibodies, ERK1/2; type: cell-based, human; conditions: K562-NIC-1 versus K562-Babe, 5 nM TPA 30 min
Experimental: as §1, §3

IL-8 = assay: Northern blotting of IL-8 transcripts in K562-Babe and K562-NIC-1 cells; type: cell-based, human; conditions: 5 nM TPA 12 h, stably transfected NIC-1
Experimental: as §1, §2

GAL4-c-Jun = GAL4-c-Jun transactivation, transient assays in K562 cells; type: cell-based, human; conditions: K562, data not presented

NIC-1: constitutively active Notch-1 intracellular domain, amino acids 1759-2556 of human Notch-1 with carboxyl-terminal Myc tag, expressed from pBabe-NIC-1
effect on time-dependent induction of phosphorylation of c-Jun (serine 73) and JunD (c-Jun; 5 nM TPA for 0, 5, 10, or 20 min): no effect | effect on c-Jun protein levels (c-Jun; K562-NIC-1 versus K562-Babe): did not affect | effect on TPA induction of IκBα transcripts (IκBα): no effect | effect on TPA-induced activity of pGL3γLuc (human Aγ globin promoter; K562, TPA-induced): without affecting | increase of basal activity of pGL3γLuc (human Aγ globin promoter; K562, basal): ~80% | effect on Fos protein levels (c-Fos): did not affect | TPA induction of MMP1 transcript levels in K562-NIC-1 versus K562-Babe cells (MMP1): considerably lower | basal and TPA-induced ERK1/2 phosphorylation (ERK1/2): slightly higher | TPA induction of IL-8 transcript levels in K562-NIC-1 versus K562-Babe cells (IL-8): considerably lower | inhibition of GAL4-c-Jun-mediated transactivation (GAL4-c-Jun): did not significantly inhibit
